Values of other authors as cited in article PMC8250858, “A Systematic Study of the Stability, Safety, and Efficacy of the de novo Designed Antimicrobial Peptide PepD2 and Its Modified Derivatives Against Acinetobacter baumannii” (Frontiers in Microbiology, 2021).

Assays:
[1] = test system: 20 strains of A. baumannii; parameters: method as in Huang et al., 2012; conditions: ref Huang et al., 2012; cited from earlier work
[2] = test system: carbapenem-resistant A. baumannii; parameters: method as in Huang et al., 2012; conditions: intraperitoneal injection twice a day for 3 days; ref Huang et al., 2012; cited from earlier work

In the case of C(LLKK)2C, the “MIC against 20 strains of A. baumannii” value [1] is given as 40 to 75 µg/mL and the “Mice rescued” value [2] is given as “rescued half of the mice”.
